Entries after “also recorded” stand apart in the source; their conditions may differ. Where a SMILES comes first, the peptide text is derived from it. [ ]: non-standard residue; d: D form. The star is where a group is joined. FITC = O=C1OC2(c3ccc(O)cc3Oc3cc(O)ccc32)c2ccc(NC(=S)*)cc21; pY = N[C@@H](Cc1ccc(OP(=O)(O)O)cc1)C(=O)O
Key:
[1] = system: Ack1; details: mice treated with a TLR7 ligand; cited from earlier work
From the text: It is increasingly clear that Mer plays a crucial role in the macrophage-mediated phagocytosis of apoptotic cells. […] Gas6 has a Gla domain at its N-terminus and binds to Mer and other TAMs to promote tyrosine kinase activity. […] Gene expression studies in colon cancer patients have shown a correlation between Ack1 expression and the extent of immune cell infiltration. Ack1 is required for apoptosis induced by TRAIL, an apoptosis-promoting factor [25], and dysregulation of Ack1 is linked to abnormal apoptotic activity. Ack1 promotes the activation of the Toll-like receptor (TLR) family members TLR4, TLR7, and TLR9 in macrophages and dendritic cells. A small molecule inhibitor of Ack1 (AIM-100) re ...

[2] = system: macrophages; details: cited from earlier work
From the text: Gene expression studies in colon cancer patients have shown a correlation between Ack1 expression and the extent of immune cell infiltration. Ack1 is required for apoptosis induced by TRAIL, an apoptosis-promoting factor [25], and dysregulation of Ack1 is linked to abnormal apoptotic activity. Ack1 promotes the activation of the Toll-like receptor (TLR) family members TLR4, TLR7, and TLR9 in macrophages and dendritic cells. A small molecule inhibitor of Ack1 (AIM-100) re ...

[3] = molecular target: T1, Mer kinase domain (Homo sapiens, UniProt Q12866); test: Fluorescence polarization binding of fluorescein-labeled phosphopeptides to Mer kinase domain
T1 construct: His tag; host or cells: E. coli YGT cells co-expressing YopH tyrosine phosphatase and GroEL
T1 sequence (Q12866 587-858 limits assumed): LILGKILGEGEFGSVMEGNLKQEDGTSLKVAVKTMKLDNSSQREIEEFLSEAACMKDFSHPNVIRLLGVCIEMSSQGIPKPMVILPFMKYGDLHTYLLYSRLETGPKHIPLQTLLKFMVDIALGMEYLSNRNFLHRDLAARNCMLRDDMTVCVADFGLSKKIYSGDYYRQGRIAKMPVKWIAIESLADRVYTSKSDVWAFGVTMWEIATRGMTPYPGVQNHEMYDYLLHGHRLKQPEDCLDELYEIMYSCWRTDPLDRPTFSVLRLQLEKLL
Protocol: (§1) Figure 4. Ack1 MHR-derived peptides. (A) Position of the MHR domain in Ack1. The expanded sequences show an alignment between Mig6 and the MHR of Ack1, with Y859–Y860 in yellow. Asterisks indicate conserved residues. (B) Phosphorylation of MHR-derived peptides (100 μM) by Mer was measured using the phosphocellulose paper binding assay (SEM error bars). (C) Binding of fluorescein-labeled pY860 peptide to Mer kinase domain was measured by fluorescence polarization.
To confirm the interaction between pY860 and Mer, we attached fluorescein to the N-terminus of peptide pY860 and measured fluorescence polarization in the presence of increasing concentrations of Mer catalytic domain (Figure 4C).
Phosphotyrosine-containing peptides were fluorescently labeled by reaction with fluorescein isothiocyanate (5 molar equivalents) in 100 mM potassium phosphate buffer (pH 7.0) for 1 h at room temperature. The fluorescent peptides were purified by gel filtration chromatography on G15 Sephadex. Fluorescence polarization was measured in a Wallac1420 Victor2 instrument using 96-well half area black plates (Thermo Fisher, Waltham, MA, USA). The excitation filter was 485 nm, and the emission filter was 535 nm. Measurements were performed in volumes of 50 μL using a buffer of 50 mM Tris (pH 7.4), with peptide concentrations of 0.25 μM or 0.5 μM. The data were analyzed with Origin software (Origin v.7).

[4] = molecular target: fluorescein-labeled Ack1 MHR peptide pY860; test: fluorescence polarisation; fluorescein-labelled phosphopeptide at 0.25 or 0.5 uM, increasing concentrations of Mer catalytic domain; 50 mM Tris pH 7.4, 50 uL; apparent Kd
[5] = system: Mer kinase; test: Phosphocellulose paper binding assay: phosphorylation of MHR-derived peptides by Mer; assay type: biochemical, human; details: peptide 100 μM; [γ-32P]ATP; purified Mer kinase domain; 30 °C
Protocol: as §1
For IP-kinase assays, cell lysates (1 mg protein) were incubated with 30 μL of EZview red anti-FLAG M2 affinity resin at 4 °C for 4 h-overnight, then washed three times with Tris-buffered saline. A portion of each sample was eluted with SDS-PAGE sample buffer and analyzed by anti-Flag Western blotting. […]
Synthetic peptides and phosphopeptides were purchased from Genemed Synthesis Inc., San Antonio, TX, USA and were purified by semipreparative HPLC on a Vydac C18 column. Peptide phosphorylation was measured using the phosphocellulose paper binding assay with [γ-^32P] […] In this assay, the production of ADP was coupled to the oxidation of NADH, which was measured as a reduction in absorbance at 340 nm. […] Absorbance data were recorded every 8 s. Kinetic constants were determined by nonlinear fitting to the initial velocity vs. (substrate) curves using GraphPad Prism, San Diego, CA, USA (v.9).

Compound: c1ccc(-c2oc3ncnc(NC[C@@H]4CCCO4)c3c2-c2ccccc2)cc1 [AIM-100]
- Effect on lupus symptoms / lupus-like phenotype [1]: mitigated the lupus symptoms; also recorded: diminishing the lupus-like phenotype
- Effect on TLR-mediated activation of macrophages [2]: reduced

Compound: CC(C)C[C@H](NC(=O)[C@H](Cc1ccc(OP(=O)(O)O)cc1)NC(=O)[C@H](Cc1ccc(O)cc1)NC(=O)[C@H](Cc1c[nH]cn1)NC(=O)[C@@H](NC(=O)[C@H](CO)NC(=O)[C@H](CO)NC(=O)[C@@H](NC(=O)[C@H](CCCCN)NC(=O)[C@H](CCCCN)NC(=O)CNC(=O)[C@H](CC(=O)O)NC(=O)[C@H](CCCNC(=N)N)NC(=S)Nc1ccc2c(c1)C(=O)OC21c2ccc(O)cc2Oc2cc(O)ccc21)C(C)C)[C@@H](C)O)C(=O)N[C@@H](CC(C)C)C(=O)N1CCC[C@H]1C(=O)N[C@@H](CCC(=O)O)C(=O)O [pY860] ({FITC}-RDGKKVSSTHY[pY]LLPE-OH)
- Kd [3]: 5.4 µM

Compound: His-tagged Mer kinase domain (from UniProt Q12866 587-858) (domain or fragment)
- Kd [4]: 5.4 µM

Compound: RDGKKVSSTHpYYLLPE [pY859, Ack1 MHR-derived phosphopeptide containing phosphorylated Y859]
- Binding of peptide to Mer (fluorescence polarization) ([3]; fluorescein-labeled peptide, 50 mM Tris pH 7.4, peptide 0.25 or 0.5 μM): below the detection limit; also recorded: poor binding

Compound: RLSSSPGKTMPTTQSFASDPKYA [MHR1, Ack1 MHR-derived synthetic peptide containing Y827]
- Phosphorylation of peptide by Mer (substrate quality) [5]: not a good substrate

— article PMC10473914, “Phosphorylation of Ack1 by the Receptor Tyrosine Kinase Mer” (Kinases and phosphatases, 2023)
